This is an account of results in patent EP1981504B1, “THIADIAZOLE DERIVATIVES FOR THE TREATMENT OF NEURO DEGENERATIVE DISEASES” (NV reMYND, priority 2006, dated 2007).

By EC50 is commonly meant the midpoint of the concentration-response curve. A high value points to a need for much substance.

In brackets after ≈: the same amount, converted by molar mass.

The experiment relates to M17-SYNwt cells. Description: α-synuclein cytotoxicity assay (LDH leakage from paraquat-treated α-synuclein over-expressing neuroblastoma cells). Conditions: paraquat 32 mM, 40 hours, LDH release; for EC50: Homo sapiens, Neuroblastoma cell; for EC50 / EC50 (µg/mL): 10 point curves in duplicate; for %I: percent inhibition of synuclein cytotoxicity at most effective concentration of test compound, relative to untreated paraquat cells. It counts as cell-based, human. The method, then: Subsequently, LDH activity was determined using Promega Cytotox 96 NonRadioactive cytotoxicity assay, (Cat. G1780) according the supplier's instructions.
This corresponds to the following equation: (LDHreleaseoftreatedparaquatcellsatnon-effectiveconcentrationoftestcmpd)−(LDHreleaseoftreatedparaquatcellsatmosteffectiveconcentrationoftestcmpd)/(LDHreleaseofuntreatedparaquatcells)−(LDHreleasecontrolcells)*100% [formula]
1,2,4-thiadazole compounds made according to the methods described herein were screened for activity using the α-synuclein cytotoxicity assay as described above. Dose responses were carried out on all compounds found to be active (10 point curves in duplicate).
(In general: Release of lactate dehydrogenase indicates damage to the cell membrane.)

In the case of `CCCCc1ccc(C(=O)N2CCN(c3nc(Cc4ccc(F)cc4)ns3)CC2C)cc1` (centres unmarked) [Compound 120, 1-(4-butylbenzoyl)-4-[3-(4-fluorobenzyl)-1,2,4-thiadiazol-5-yl]-2-methylpiperazine], a half-maximal response (EC50) required 0.0987 µg/mL (≈ 0.218 µM) and the “%I” value was 120%.

Regarding `O=C(Cc1ccccc1)NCCN1CCN(c2nc(Cc3ccc(F)cc3)ns2)CC1` [Compound 108, 2-phenyl-N-{2-[4-[3-(4-fluorobenzyl)-1,2,4-thiadiazol-5-yl]piperazin-1-yl]ethyl}acetamide], the EC50 worked out at 2.06 µg/mL (≈ 4.69 µM) and the “%I” value was 63%.

For `O=C(NCCN1CCN(c2nc(Cc3ccc(F)cc3)ns2)CC1)c1cc(Cl)cc(Cl)c1` [Compound 98, 3,5-dichloro-N-{2-[4-[3-(4-fluorobenzyl)-1,2,4-thiadiazol-5-yl]piperazin-1-yl]ethyl}benzamide], the EC50 came to 1.42 µg/mL (≈ 2.87 µM) and the “%I” value came out at 102%.

Take `CCc1ccc(S(=O)(=O)N2CCN(c3nc(Cc4ccc(F)cc4)ns3)CC2)cc1` [Compound 197, 1-[4-ethylphenylsulfonyl]-4-[3-(4-fluoro-benzyl)-1,2,4-thiadiazol-5-yl]piperazine]: the EC50 came to 0.239 µg/mL (≈ 0.535 µM) and the “%I” value came to 84%.

For `CCCCCc1ccc(C(=O)N2CCN(c3nc(Cc4ccc(C)cc4)ns3)CC2C)cc1` (centres unmarked) [Compound 134, 1-(4-pentylbenzoyl)-4-[3-(4-methylbenzyl)-1,2,4-thiadiazol-5-yl]-2-methylpiperazine], a half-maximal response (EC50) required 0.3 µg/mL (≈ 0.648 µM) and the “%I” value amounted to 75%.

For `O=C(NCCN1CCN(c2nc(Cc3ccccc3)ns2)CC1)c1cccc(F)c1` [Compound 106, 3-fluoro-N-{2-[4-[3-benzyl-1,2,4-thiadiazol-5-yl]piperazin-1-yl]ethyl}benzamide], the “%I” value was 49%.

Regarding `CC1CN(c2nc(Cc3ccc(Cl)cc3)ns2)CCN1C(=O)c1ccccc1F` (centres unmarked) [Compound 167, 1-(2-fluorobenzoyl)-4-[3-(4-chlorobenzyl)-1,2,4-thiadiazol-5-yl]-2-methylpiperazine], the “%I” value came to 117%.

For `CCCCS(=O)(=O)N1CCN(c2nc(Cc3ccc(Cl)cc3)ns2)CC1` [Compound 81, 1-(butylsulfonyl)-4-[3-(4-chlorobenzyl)-1,2,4-thiadiazol-5-yl]piperazine], the EC50 is 0.35 µg/mL (≈ 0.843 µM) and the “%I” value was found to be 80%.

Turning to `Cc1ccc(Cc2nsc(N3CCN(C(=O)c4ccc(Br)cc4)CC3)n2)cc1` [Compound 164, 1-(4-bromobenzoyl)-4-[3-(4-methylbenzyl)-1,2,4-thiadiazol-5-yl]piperazine], a half-maximal response (EC50) required 3.86 µg/mL (≈ 8.44 µM) and the “%I” value is given as 60%.

In the case of `O=C(NCCN1CCN(c2nc(Cc3ccc(F)cc3)ns2)CC1)NCc1ccccc1` [Compound 110, N-benzyl-N'-{2-[4-[3-(4-fluorobenzyl)-1,2,4-thiadiazol-5-yl]piperazin-1-yl]ethyl}urea], the “%I” value came to 77%.

`CCCCc1ccc(C(=O)N2CCN(c3nc(Cc4ccc(C)cc4)ns3)CC2C)cc1` (centres unmarked) [Compound 117, 1-(4-butylbenzoyl)-4-[3-(4-methylbenzyl)-1,2,4-thiadiazol-5-yl]-2-methylpiperazine]: the 50% effective concentration (EC50) was 0.0841 µg/mL (≈ 0.187 µM) and the “%I” value was determined as 82%.

“1-(phenylprop-2-ensulfonyl)-4-[3-(4-methylbenzyl)-1,2,4-thiadiazol-5-yl]piperazine [Compound 80]”: the “EC50 (µg/mL)” value is reported as 0,056880 µg/mL and the “%I” value amounted to 70%.

For `O=C(c1ccccc1F)N1CCN(c2nc(Cc3ccc(Cl)cc3)ns2)CC1` [Compound 159, 1-(2-fluorobenzoyl)-4-[3-(4-chlorobenzyl)-1,2,4-thiadiazol-5-yl]piperazine], the EC50 was 2.85 µg/mL (≈ 6.84 µM) and the “%I” value was determined as 48%.

On to `CCc1ccccc1NC(=O)N1CCN(c2nc(Cc3ccc(F)cc3)ns2)CC1C` (centres unmarked) [Compound 12, N-(2-ethylphenyl)-4-[3-(4-fluorobenzyl)-1,2,4-thiadiazol-5-yl]-2-methylpiperazine-1-carboxamide], for which the EC50 came to 0.89 µg/mL (≈ 2.02 µM) and the “%I” value is recorded as 92%.

As for `CC(C)(C)c1ccc(C(=O)N2CCN(c3nc(Cc4ccc(F)cc4)ns3)CC2)cc1` [Compound 180, 1-(4-tert-butylbenzoyl)-4-[3-(4-fluorobenzyl)-1,2,4-thiadiazol-5-yl]piperazine], the “%I” value is given as 62%.

For `Cc1cccc(C)c1NC(=O)N1CCN(c2nc(Cc3ccc(F)cc3)ns2)CC1` [Compound 24, N-(2,6-dimethylphenyl)-4-[3-(4-fluorobenzyl)-1,2,4-thiadiazol-5-yl]piperazine-1-carboxamide], the 50% effective concentration (EC50) was 1.2 µg/mL (≈ 2.82 µM) and the “%I” value is 124%.

For `CC1CN(c2nc(Cc3ccc(F)cc3)ns2)CCN1C(=O)Nc1ccc(F)c(F)c1` (centres unmarked) [Compound 26, N-(3,4-difluorophenyl)-4-[3-(4-fluorobenzyl)-1,2,4-thiadiazol-5-yl]-2-methylpiperazine-1-carboxamide], the “%I” value stood at 70%.

Take `CC1CN(c2nc(Cc3ccc(F)cc3)ns2)CCN1C(=O)c1ccc2ccccc2c1` (centres unmarked) [Compound 132, 1-(2-naphthoyl)-4-[3-(4-fluorobenzyl)-1,2,4-thiadiazol-5-yl]-2-methylpiperazine]: it took 0.26 µg/mL (≈ 0.582 µM) to reach a half-maximal effect (EC50) and the “%I” value is given as 74%.

`Cc1ccc(Cc2nsc(N3CCN(C(=O)c4ccc(C(F)(F)F)cc4)CC3)n2)cc1` [Compound 171, 1-(4-trifluoromethylbenzoyl)-4-[3-(4-methylbenzyl)-1,2,4-thiadiazol-5-yl]piperazine]: the “%I” value was 86%.

As to `O=C(c1ccc(F)cc1)N1CCN(c2nc(Cc3ccccc3)ns2)CC1` [Compound 163, 1-(4-fluorobenzoyl)-4-[3-benzyl-1,2,4-thiadiazol-5-yl]piperazine], the EC50 is 3.61 µg/mL (≈ 9.44 µM) and the “%I” value is given as 67%.

As for “1-[4-bromophenylsulfonyl]-4-[3-(4-methylbenzyl)-1,2,4-thiadiazol-5-yl]-3-methylpiperazine [Compound 40]”, the “EC50 (µg/mL)” value is reported as 0,099855 µg/mL and the “%I” value stood at 77%.

For the compound `CC1CN(c2nc(Cc3ccccc3)ns2)CCN1C(=O)c1cccc(F)c1` (centres unmarked) [Compound 150, 1-(3-fluorobenzoyl)-4-[3-benzyl-1,2,4-thiadiazol-5-yl]-2-methylpiperazine], a half-maximal response (EC50) required 1.14 µg/mL (≈ 2.88 µM) and the “%I” value is given as 99%.

Turning to `O=C(c1ccc2c(c1)OCO2)N1CCCN(c2nc(Cc3ccc(F)cc3)ns2)CC1` [Compound 191, 1-(1,3-benzodioxol-5-ylcarbonyl)-4-[3-(4-fluorobenzyl)-1,2,4-thiadiazol-5-yl]-1,4-diazepane], the “%I” value came to 63%.

As for `Cc1ccc(C(=O)N2CCN(c3nc(Cc4ccc(F)cc4)ns3)CC2C)cc1[N+](=O)[O-]` (centres unmarked) [Compound 172, 1-(3-nitro-4-methylbenzoyl)-4-[3-(4-fluorobenzyl)-1,2,4-thiadiazol-5-yl]-2-methylpiperazine], the “%I” value came to 86%.

On to `Clc1ccc(Cc2nsc(N3CCN(C/C=C/c4ccccc4)CC3)n2)cc1` [Compound 92, 1-[3-phenylprop-2-enyl]-4-[3-(4-chlorobenzyl)-1,2,4-thiadiazol-5-yl]piperazine], for which a half-maximal response (EC50) required 0.75 µg/mL (≈ 1.82 µM) and the “%I” value is 69%.

In the case of `CC1CN(c2nc(Cc3ccc(F)cc3)ns2)CCN1C(=O)Nc1ccccc1C(F)(F)F` (centres unmarked) [Compound 18, N-(2-trifluoromethylphenyl)-4-[3-(4-fluorobenzyl)-1,2,4-thiadiazol-5-yl]-2-methylpiperazine-1-carboxamide], the “%I” value worked out at 41%.

With `CC1CN(c2nc(Cc3ccc(F)cc3)ns2)CCN1C(=O)c1ccc2c(c1)OCO2` (centres unmarked) [Compound 178, 1-(1,3-benzodioxol-5-ylcarbonyl)-4-[3-(4-fluorobenzyl)-1,2,4-thiadiazol-5-yl]-2-methylpiperazine], the “%I” value stood at 68%.

With `CC1CN(c2nc(Cc3ccc(Cl)cc3)ns2)CCN1S(=O)(=O)c1cccc2ccccc12` (centres unmarked) [Compound 43, 1-[1-naphtylsulfonyl]-4-[3-(4-chlorobenzyl)-1,2,4-thiadiazol-5-yl]-2-methylpiperazine], the EC50 was 0.89 µg/mL (≈ 1.78 µM) and the “%I” value is on record as 35%.

Take `CC(C)(C)c1ccc(S(=O)(=O)N2CCN(c3nc(Cc4ccc(F)cc4)ns3)CC2)cc1` [Compound 30, 1-[4-tert-butylphenylsulfonyl]-4-[3-(4-fluorobenzyl)-1,2,4-thiadiazol-5-yl]piperazine]: the “%I” value was 51%.

As for `Cc1ccc(Cc2nsc(N3CCN(S(=O)(=O)c4ccc5ccccc5c4)C(C)C3)n2)cc1` (centres unmarked) [Compound 38, 1-[2-naphtylsulfonyl]-4-[3-(4-methylbenzyl)-1,2,4-thiadiazol-5-yl]-2-methylpiperazine], the midpoint of the response, the EC50, lay at 0.13 µg/mL (≈ 0.272 µM) and the “%I” value is on record as 78%.

On to `Cc1ccc(Cc2nsc(N3CCN(S(=O)(=O)c4ccc(Cl)cc4)C(C)C3)n2)cc1` (centres unmarked) [Compound 34, 1-[4-chlorophenylsulfonyl]-4-[3-(4-methylbenzyl)-1,2,4-thiadiazol-5-yl]-2-methylpiperazine], for which a half-maximal response (EC50) required 0.0657 µg/mL (≈ 0.142 µM) and the “%I” value amounted to 66%.

Turning to `CCCCS(=O)(=O)N1CCN(c2nc(Cc3ccc(C)cc3)ns2)CC1` [Compound 83, 1-(butylsulfonyl)-4-[3-(4-methylbenzyl)-1,2,4-thiadiazol-5-yl]piperazine], a half-maximal response (EC50) required 2.64 µg/mL (≈ 6.69 µM) and the “%I” value is recorded as 36%.
